Legend:
[1] = tested on: barnyardgrass; assay: Test C preemergence; format: in vivo, Echinochloa crusgalli; conditions: 0 to 100 scale (0 no effect, 100 complete control); for Plant response rating, Barnyardgrass: Preemergence, 500 g ai/ha, visual rating after 10 days; for Barnyardgrass plant response rating: Test C, preemergence, 125 g ai/ha
Procedure, shortened: (§1)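 Seeds sown in loam soil–sand blend received a directed preemergence soil spray of test chemical in non-phytotoxic solvent with surfactant; postemergence plants (2–10 cm, one- to two-leaf stage) were sprayed with the same formulation. Greenhouse-held 10 days, then visually rated for injury versus untreated controls, 0 (no effect) to 100 (complete control).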

[2] = tested on: blackgrass; assay: Test C preemergence; format: in vivo, Alopecurus myosuroides; conditions: 0 to 100 scale (0 no effect, 100 complete control); for Plant response rating, Blackgrass: Preemergence, 500 g ai/ha, visual rating after 10 days; for Blackgrass plant response rating: Test C, preemergence, 125 g ai/ha
Procedure, shortened: as §1

[3] = tested on: corn; assay: Test C preemergence; format: in vivo, Zea mays; conditions: preemergence, 0 to 100 scale (0 no effect, 100 complete control)
Procedure, shortened: as §1

[4] = tested on: green foxtail; assay: Test C preemergence; format: in vivo, Setaria viridis; conditions: preemergence, 0 to 100 scale (0 no effect, 100 complete control)
Procedure, shortened: as §1

[5] = tested on: kochia; assay: Test C preemergence; format: in vivo, Bassia scoparia; conditions: preemergence, 0 to 100 scale (0 no effect, 100 complete control)
Procedure, shortened: as §1

[6] = tested on: oat, wild; assay: Test C preemergence; format: in vivo, Avena fatua; conditions: preemergence, 0 to 100 scale (0 no effect, 100 complete control)
Procedure, shortened: as §1

[7] = tested on: pigweed, palmer; assay: Test C preemergence; format: in vivo, Amaranthus palmeri; conditions: preemergence, 0 to 100 scale (0 no effect, 100 complete control)
Procedure, shortened: as §1

[8] = tested on: ragweed; assay: Test C preemergence; format: in vivo, Ambrosia artemisiifolia; conditions: preemergence, 0 to 100 scale (0 no effect, 100 complete control)
Procedure, shortened: as §1

[9] = tested on: ryegrass, Italian; assay: Test C preemergence; format: in vivo, Lolium multiflorum; conditions: preemergence, 0 to 100 scale (0 no effect, 100 complete control)
Procedure, shortened: as §1

[10] = tested on: soybean; assay: Test C preemergence; format: in vivo, Glycine max; conditions: preemergence, 0 to 100 scale (0 no effect, 100 complete control)
Procedure, shortened: as §1

[11] = tested on: wheat; assay: Test C preemergence; format: in vivo, Triticum aestivum; conditions: preemergence, 0 to 100 scale (0 no effect, 100 complete control)
Procedure, shortened: as §1

[12] = tested on: barnyardgrass; assay: Test C postemergence; format: in vivo, Echinochloa crusgalli; conditions: 10 days
Procedure, shortened: as §1

[13] = tested on: blackgrass; assay: Test C postemergence; format: in vivo, Alopecurus myosuroides; conditions: 10 days
Procedure, shortened: as §1

[14] = tested on: corn; assay: Test C postemergence; format: in vivo, Zea mays; conditions: 10 days
Procedure, shortened: as §1

[15] = tested on: green foxtail; assay: Test C postemergence; format: in vivo, Setaria viridis; conditions: 10 days
Procedure, shortened: as §1

[16] = tested on: kochia; assay: Test C postemergence; format: in vivo, Bassia scoparia; conditions: 125 g ai/ha, postemergence, 10 days; 0 to 100 scale, 0 no effect, 100 complete control
Procedure, shortened: as §1

[17] = tested on: oat, wild; assay: Test C postemergence; format: in vivo, Avena fatua; conditions: 125 g ai/ha, postemergence, 10 days; 0 to 100 scale, 0 no effect, 100 complete control
Procedure, shortened: as §1

[18] = tested on: pigweed, palmer; assay: Test C postemergence; format: in vivo, Amaranthus palmeri; conditions: 125 g ai/ha, postemergence, 10 days; 0 to 100 scale, 0 no effect, 100 complete control
Procedure, shortened: as §1

[19] = tested on: ragweed; assay: Test C postemergence; format: in vivo, Ambrosia artemisiifolia; conditions: 125 g ai/ha, postemergence, 10 days; 0 to 100 scale, 0 no effect, 100 complete control
Procedure, shortened: as §1

[20] = tested on: ryegrass, Italian; assay: Test C postemergence; format: in vivo, Lolium multiflorum; conditions: 125 g ai/ha, postemergence, 10 days; 0 to 100 scale, 0 no effect, 100 complete control
Procedure, shortened: as §1

[21] = tested on: soybean; assay: Test C postemergence; format: in vivo, Glycine max; conditions: 125 g ai/ha, postemergence, 10 days; 0 to 100 scale, 0 no effect, 100 complete control
Procedure, shortened: as §1

[22] = tested on: wheat; assay: Test C postemergence; format: in vivo, Triticum aestivum; conditions: 125 g ai/ha, postemergence, 10 days; 0 to 100 scale, 0 no effect, 100 complete control
Procedure, shortened: as §1

[23] = tested on: galium; assay: Test C postemergence; format: in vivo, Galium aparine; conditions: 10 days
Procedure, shortened: as §1

[24] = tested on: horseweed; assay: Test C postemergence; format: in vivo, Erigeron canadensis; conditions: 10 days
Procedure, shortened: as §1

[25] = tested on: barnyardgrass; assay: Test D flooded paddy test; format: in vivo, Echinochloa crus-galli; conditions: 250 g ai/ha, applied to paddy water, visual rating after 13 to 14 days, scale 0 to 100 (0 no effect, 100 complete control)
Procedure, shortened: (§2)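 At the 2-leaf stage, floodwater 3 cm deep received the test compound; that depth persisted throughout. Plants scored visually 13 to 14 days on, 0 (no effect) to 100 (complete control), dash indicating no result.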

[26] = tested on: ducksalad; assay: Test D flooded paddy test; format: in vivo, Heteranthera limosa; conditions: 250 g ai/ha, applied to paddy water, visual rating after 13 to 14 days, scale 0 to 100 (0 no effect, 100 complete control)
Procedure, shortened: as §2

[27] = tested on: rice; assay: Test D flooded paddy test; format: in vivo, Oryza sativa; conditions: 250 g ai/ha, applied to paddy water, visual rating after 13 to 14 days, scale 0 to 100 (0 no effect, 100 complete control)
Procedure, shortened: as §2

[28] = tested on: sedge, umbrella; assay: Test D flooded paddy test; format: in vivo, Cyperus difformis; conditions: 250 g ai/ha, applied to paddy water, visual rating after 13 to 14 days, scale 0 to 100 (0 no effect, 100 complete control)
Procedure, shortened: as §2

[29] = 125 g ai/ha, postemergence, 0 to 100 scale, 0 no effect, 100 complete control
[30] = Postemergence, 500 g ai/ha, visual 0 to 100 scale (0 no effect, 100 complete control)

What does the source list for `COc1ccc(-n2cnc(C(C)(C)O)n2)cc1C(=O)N1C[C@H](C)Oc2c(C)cccc21` [Compound 280]?
Plant response rating, Barnyardgrass [1]: 100; Barnyardgrass plant response rating [1]: 100; Plant response rating, Blackgrass [2]: 80; Blackgrass plant response rating [2]: 70; Corn plant response rating ([3]; 500 g ai/ha): 60; Corn plant response rating ([3]; Test C, 125 g ai/ha): 30; Foxtail, Green plant response rating ([4]; 500 g ai/ha): 100; Foxtail, Green plant response rating ([4]; Test C, 125 g ai/ha): 100; Kochia plant response rating ([5]; 500 g ai/ha): 100; Kochia plant response rating ([5]; Test C, 125 g ai/ha): 90; Oat, Wild plant response rating ([6]; 500 g ai/ha): 90; Oat, Wild plant response rating ([6]; Test C, 125 g ai/ha): 60; Pigweed, Palmer plant response rating ([7]; 500 g ai/ha): 100; Pigweed, Palmer plant response rating ([7]; Test C, 125 g ai/ha): 100; Ragweed plant response rating ([8]; 500 g ai/ha): 100; Ragweed plant response rating ([8]; Test C, 125 g ai/ha): 90; Ryegrass, Italian plant response rating ([9]; 500 g ai/ha): 90; Ryegrass, Italian plant response rating ([9]; Test C, 125 g ai/ha): 90; Soybean plant response rating ([10]; 500 g ai/ha): 100; Soybean plant response rating ([10]; Test C, 125 g ai/ha): 90; Wheat plant response rating ([11]; 500 g ai/ha): 90; Wheat plant response rating ([11]; Test C, 125 g ai/ha): 70; Plant response rating, Barnyardgrass [12, 29]: 50; Plant response rating, Barnyardgrass [12, 30]: 90; Plant response rating, Blackgrass [13, 29]: 80; Plant response rating, Blackgrass [13, 30]: 100; Plant response rating, Corn [14, 29]: 90; Plant response rating, Corn [14, 30]: 90; Plant response rating, Foxtail, Green [15, 29]: 60; Plant response rating, Foxtail, Green [15, 30]: 90; Plant response rating, Kochia [16]: 60; Plant response rating, Oat, Wild [17]: 80; Plant response rating, Pigweed, Palmer [18]: 70; Plant response rating, Ragweed [19]: 70; Plant response rating, Ryegrass, Italian [20]: 90; Plant response rating, Soybean [21]: 100; Plant response rating, Wheat [22]: 80; Plant response rating, Galium [23, 29]: 100; Plant response rating, Galium [23, 30]: 100; Plant response rating, Horseweed [24, 29]: 30; Plant response rating, Horseweed [24, 30]: 60; Plant response rating, Barnyardgrass (Flood) [25]: 25; Plant response rating, Ducksalad (Flood) [26]: 70; Plant response rating, Rice (Flood) [27]: 20; Plant response rating, Sedge, Umbrella (Flood) [28]: 95

`CCc1ncn(-c2ccc(OC)c(C(=S)N3C[C@H](C)Oc4c(C)cccc43)c2)n1` [Compound 271] was tested. Which “Plant response rating, Barnyardgrass” value [1] did it give?
The value was 100.

What about the “Barnyardgrass plant response rating” value [1] of the same compound?
The value was 100.

And the “Plant response rating, Blackgrass” value [2]?
Its value is 60.

And the “Blackgrass plant response rating” value [2]?
Its value is 20.

And the “Corn plant response rating” value ([3]; 500 g ai/ha)?
Its value is 0.

And the “Corn plant response rating” value ([3]; Test C, 125 g ai/ha)?
The value was 0.

What about the “Foxtail, Green plant response rating” value ([4]; 500 g ai/ha) of the same compound?
The value was 100.

What about the “Foxtail, Green plant response rating” value ([4]; Test C, 125 g ai/ha) of the same compound?
Its value is 100.

What about the “Kochia plant response rating” value ([5]; 500 g ai/ha) of the same compound?
The value was 100.

And the “Kochia plant response rating” value ([5]; Test C, 125 g ai/ha)?
Its value is 30.

What about the “Oat, Wild plant response rating” value ([6]; 500 g ai/ha) of the same compound?
The value was 80.

And the “Oat, Wild plant response rating” value ([6]; Test C, 125 g ai/ha)?
The value was 30.

And the “Pigweed, Palmer plant response rating” value ([7]; 500 g ai/ha)?
The value was 100.

And the “Pigweed, Palmer plant response rating” value ([7]; Test C, 125 g ai/ha)?
The value was 100.

What about the “Ragweed plant response rating” value ([8]; 500 g ai/ha) of the same compound?
Its value is 100.

And the “Ragweed plant response rating” value ([8]; Test C, 125 g ai/ha)?
Its value is 10.

What about the “Ryegrass, Italian plant response rating” value ([9]; 500 g ai/ha) of the same compound?
The value was 90.

What about the “Ryegrass, Italian plant response rating” value ([9]; Test C, 125 g ai/ha) of the same compound?
Its value is 80.

And the “Soybean plant response rating” value ([10]; 500 g ai/ha)?
The value was 100.

And the “Soybean plant response rating” value ([10]; Test C, 125 g ai/ha)?
The value was 70.

And the “Wheat plant response rating” value ([11]; 500 g ai/ha)?
Its value is 80.

What about the “Wheat plant response rating” value ([11]; Test C, 125 g ai/ha) of the same compound?
The value was 20.

And the “Plant response rating, Barnyardgrass” value [12, 29]?
Its value is 70.

And the “Plant response rating, Barnyardgrass” value [12, 30]?
Its value is 90.

And the “Plant response rating, Blackgrass” value [13, 29]?
The value was 70.

What about the “Plant response rating, Blackgrass” value [13, 30] of the same compound?
Its value is 90.

What about the “Plant response rating, Corn” value [14, 29] of the same compound?
Its value is 50.

And the “Plant response rating, Corn” value [14, 30]?
Its value is 90.

And the “Plant response rating, Foxtail, Green” value [15, 29]?
The value was 90.

What about the “Plant response rating, Foxtail, Green” value [15, 30] of the same compound?
Its value is 90.

And the “Plant response rating, Kochia” value [16]?
Its value is 60.

What about the “Plant response rating, Oat, Wild” value [17] of the same compound?
The value was 80.

What about the “Plant response rating, Pigweed, Palmer” value [18] of the same compound?
Its value is 90.

What about the “Plant response rating, Ragweed” value [19] of the same compound?
Its value is 50.

What about the “Plant response rating, Ryegrass, Italian” value [20] of the same compound?
Its value is 60.

And the “Plant response rating, Soybean” value [21]?
Its value is 100.

What about the “Plant response rating, Wheat” value [22] of the same compound?
The value was 70.

What about the “Plant response rating, Galium” value [23, 29] of the same compound?
Its value is 90.

And the “Plant response rating, Galium” value [23, 30]?
The value was 100.

And the “Plant response rating, Horseweed” value [24, 29]?
Its value is 50.

What about the “Plant response rating, Horseweed” value [24, 30] of the same compound?
The value was 90.

And the “Plant response rating, Barnyardgrass (Flood)” value [25]?
The value was 0.

And the “Plant response rating, Ducksalad (Flood)” value [26]?
The value was 85.

What about the “Plant response rating, Rice (Flood)” value [27] of the same compound?
Its value is 10.

What about the “Plant response rating, Sedge, Umbrella (Flood)” value [28] of the same compound?
The value was 100.
